The values that follow come from the supplement of paper PMC10627819.

Experiment in all cases: Bliss interaction score (quartile over a dose matrix) (fitness difference); higher = more antagonism (negative = synergy)
In one assay the test system is B. subtilis 168. The essentials: (§1)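 OD595 was read at entry into stationary phase and expressed relative to the robust mean of the no-drug wells on the same plate, capped at 1. The resulting ratio is the fitness value. The Bliss score, observed fitness minus product-based expected fitness with single-drug fitness inferred from combinations, is summarised by quartiles over technical, biological and donor/recipient replicates.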

The subject of another assay is S. aureus DSM 20231. In outline: as §1
Another assay concerns S. aureus Newman. In outline: as §1
For a further assay, the system named is S. pneumoniae D39V. The essentials:
as §1
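Also: first quartile when negative (synergy) and third quartile when positive (antagonism).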

In the case of `CN[C@H](CC(C)C)C(=O)N[C@H]1C(=O)N[C@@H](CC(N)=O)C(=O)N[C@H]2C(=O)N[C@H]3C(=O)N[C@H](C(=O)N[C@H](C(=O)O)c4cc(O)cc(O)c4-c4cc3ccc4O)[C@H](O[C@H]3C[C@](C)(N)[C@@H](O)[C@H](C)O3)c3ccc(c(Cl)c3)Oc3cc2cc(c3O[C@@H]2O[C@H](CO)[C@@H](O)[C@H](O)[C@H]2O[C@H]2C[C@](C)(NCc3ccc(-c4ccc(Cl)cc4)cc3)[C@@H](O)[C@H](C)O2)Oc2ccc(cc2Cl)[C@H]1O` [Oritavancin] + C/C(=C\C(=O)OCCCCCCCCC(=O)O)C[C@@H]1OC[C@H](C[C@@H]2O[C@H]2[C@@H](C)[C@H](C)O)[C@@H](O)[C@H]1O [Pseudomonic acid], the Bliss interaction score in the assay with B. subtilis 168 was determined as 0.0341; in the assay with S. aureus DSM 20231, 0.0201; in the assay with S. aureus Newman, 0.0197; in the assay with S. pneumoniae D39V, 0.0558.
For `CN[C@H](CC(C)C)C(=O)N[C@H]1C(=O)N[C@@H](CC(N)=O)C(=O)N[C@H]2C(=O)N[C@H]3C(=O)N[C@H](C(=O)N[C@H](C(=O)O)c4cc(O)cc(O)c4-c4cc3ccc4O)[C@H](O[C@H]3C[C@](C)(N)[C@@H](O)[C@H](C)O3)c3ccc(c(Cl)c3)Oc3cc2cc(c3O[C@@H]2O[C@H](CO)[C@@H](O)[C@H](O)[C@H]2O[C@H]2C[C@](C)(NCc3ccc(-c4ccc(Cl)cc4)cc3)[C@@H](O)[C@H](C)O2)Oc2ccc(cc2Cl)[C@H]1O` [Oritavancin] + CC1(C)S[C@@H]2[C@H](NC(=O)Cc3ccccc3)C(=O)N2[C@H]1C(=O)O [PenicillinG], the Bliss interaction score was 0.0358 in the assay on B. subtilis 168, 0.0356 in the assay on S. aureus DSM 20231, -0.066 with S. aureus Newman and 0.0412 in the assay with S. pneumoniae D39V.
The matching figures for `CN[C@H](CC(C)C)C(=O)N[C@H]1C(=O)N[C@@H](CC(N)=O)C(=O)N[C@H]2C(=O)N[C@H]3C(=O)N[C@H](C(=O)N[C@H](C(=O)O)c4cc(O)cc(O)c4-c4cc3ccc4O)[C@H](O[C@H]3C[C@](C)(N)[C@@H](O)[C@H](C)O3)c3ccc(c(Cl)c3)Oc3cc2cc(c3O[C@@H]2O[C@H](CO)[C@@H](O)[C@H](O)[C@H]2O[C@H]2C[C@](C)(NCc3ccc(-c4ccc(Cl)cc4)cc3)[C@@H](O)[C@H](C)O2)Oc2ccc(cc2Cl)[C@H]1O` [Oritavancin] + CC1=C\[C@@H](O)CC(=O)Cc2nc(co2)C(=O)N2CCC=C2C(=O)O[C@H](C(C)C)[C@H](C)/C=C/C(=O)NC\C=C\1 [Virginiamycin M1]: -0.0178, -0.0348, -0.0713 and 0.0739.
As for `CN[C@H](CC(C)C)C(=O)N[C@H]1C(=O)N[C@@H](CC(N)=O)C(=O)N[C@H]2C(=O)N[C@H]3C(=O)N[C@H](C(=O)N[C@H](C(=O)O)c4cc(O)cc(O)c4-c4cc3ccc4O)[C@H](O[C@H]3C[C@](C)(N)[C@@H](O)[C@H](C)O3)c3ccc(c(Cl)c3)Oc3cc2cc(c3O[C@@H]2O[C@H](CO)[C@@H](O)[C@H](O)[C@H]2O[C@H]2C[C@](C)(NCc3ccc(-c4ccc(Cl)cc4)cc3)[C@@H](O)[C@H](C)O2)Oc2ccc(cc2Cl)[C@H]1O` [Oritavancin] + CCCCCCCCCC(=O)N[C@@H]1[C@H]([C@@H]([C@H](O[C@H]1OC2=C3C=C4C=C2OC5=C(C=C(C=C5)[C@H]([C@H]6C(=O)N[C@@H](C7=C(C(=CC(=C7)O)OC8[C@H]([C@H]([C@@H]([C@H](O8)CO)O)O)O)C9=C(C=CC(=C9)[C@H](C(=O)N6)NC(=O)[C@@H]4NC(=O)[C@@H]1C2=CC(=CC(=C2)OC2=C(C=CC(=C2)[C@H](C(=O)N[C@H](CC2=CC(=C(O3)C=C2)Cl)C(=O)N1)N)O)O)O)C(=O)O)O[C@H]1[C@@H]([C@H]([C@@H]([C@H](O1)CO)O)O)NC(=O)C)Cl)CO)O)O [Teicoplanin], the Bliss interaction score is -0.0407 in the assay on B. subtilis 168 (main component drawn), -0.0634 in the assay with S. aureus DSM 20231 (main component drawn), -0.117 with S. aureus Newman (main component drawn) and 0.0813 with S. pneumoniae D39V (main component drawn).
On to `CN[C@H](CC(C)C)C(=O)N[C@H]1C(=O)N[C@@H](CC(N)=O)C(=O)N[C@H]2C(=O)N[C@H]3C(=O)N[C@H](C(=O)N[C@H](C(=O)O)c4cc(O)cc(O)c4-c4cc3ccc4O)[C@H](O[C@H]3C[C@](C)(N)[C@@H](O)[C@H](C)O3)c3ccc(c(Cl)c3)Oc3cc2cc(c3O[C@@H]2O[C@H](CO)[C@@H](O)[C@H](O)[C@H]2O[C@H]2C[C@](C)(NCc3ccc(-c4ccc(Cl)cc4)cc3)[C@@H](O)[C@H](C)O2)Oc2ccc(cc2Cl)[C@H]1O` [Oritavancin] + CCN(CC)CCOC(=O)c1ccc(N)cc1 [Procaine], for which the Bliss interaction score with B. subtilis 168 is -0.0177; with S. aureus DSM 20231, -0.0785; in the assay on S. aureus Newman, -0.0513; in the assay with S. pneumoniae D39V, -0.0615.
For `CN[C@H](CC(C)C)C(=O)N[C@H]1C(=O)N[C@@H](CC(N)=O)C(=O)N[C@H]2C(=O)N[C@H]3C(=O)N[C@H](C(=O)N[C@H](C(=O)O)c4cc(O)cc(O)c4-c4cc3ccc4O)[C@H](O[C@H]3C[C@](C)(N)[C@@H](O)[C@H](C)O3)c3ccc(c(Cl)c3)Oc3cc2cc(c3O[C@@H]2O[C@H](CO)[C@@H](O)[C@H](O)[C@H]2O[C@H]2C[C@](C)(NCc3ccc(-c4ccc(Cl)cc4)cc3)[C@@H](O)[C@H](C)O2)Oc2ccc(cc2Cl)[C@H]1O` [Oritavancin] + CC[C@H]1OC(=O)[C@H](C)C(=O)[C@H](C)[C@@H](O[C@@H]2O[C@H](C)C[C@H](N(C)C)[C@H]2O)[C@](C)(OC)C[C@@H](C)C(=O)[C@H](C)[C@H]2N(CCCCn3cnc(-c4cccnc4)c3)C(=O)O[C@]12C [Telithromycin] the same measures were 0.0211, -0.0333, -0.0486 and 0.0281.
